Melting point data for 63 molecules are collected here from a melting point compilation (Tetko et al.; mined from patent text by program, amines drawn as free bases though some values may be those of a salt).

The structures appear in SMILES notation.

By melting point is commonly meant the temperature, or range, at which the solid turns liquid.

Molecule `Nc1cccc(CN2C(=O)[C@H]3CCC[C@H]3Nc3ccccc32)c1` (relative stereo) returned a melting point of 176 to 178 °C.

`C=C(CC(=O)c1ccc(Cl)c(Cl)c1)C(=O)O` gave a melting point of 156 to 157 °C.

Take `COc1ccc(CCC(=O)Nc2c(C)c(C)c3c(c2C)[C@@H](c2ccc(C)cc2)C(C)(C)O3)cc1`: the melting point fell in the range of 170 to 172 °C.

Molecule `Cc1ccc(Cn2[nH]c(N)cc2=O)cc1C(F)(F)F` yielded a melting point of 103 °C.

`Cc1nnc(Sc2nc3cc(C(=O)c4ccccc4)ccc3nc2C(F)(F)F)s1` displayed a melting point of 176 to 179 °C.

In the case of `CN(c1cccc2cc(C3=NCC(CC(=O)O)S3)[nH]c12)S(=O)(=O)c1nccs1` (stereo not drawn), the melting point lay in the range of 121 to 123 °C.

Molecule `CC(C)C[C@H](NC(=O)OCC1CCCCC1)C(=O)N[C@@H](CC(C)C)C(=O)N[C@@H](C(C)C)[C@@H](O)c1c(-c2ccccc2)c1=O` gave a melting point of 109 to 116 °C.

`COc1ccc2c(c1)C(=O)C(Cc1ccccc1)CO2` (stereo not drawn) yielded a melting point of 71 to 72 °C.

`C[C@@H](c1ccc(-c2ccn(C3CC3)c(=O)c2)cc1)N1CC[C@](CC(C)(C)O)(c2ccccc2)OC1=O` displayed a melting point of 91 to 94 °C.

`FC(F)(F)c1ccc(OCCCc2cn(C(c3ccccc3)(c3ccccc3)c3ccccc3)cn2)cc1` registered a melting point of 150 to 151 °C.

Regarding `CC(=O)c1c(Sc2cc(Cl)cc(Cl)c2)[nH]c2ccc(Cl)cc12`, the melting point was in the range of 180 to 185 °C.

On to `CCC(C)(C)Nc1c(NCc2cccc(Cl)c2Cl)c(=O)c1=O`, for which the melting point lay within 222 to 223 °C.

Take `O=C(O)c1c(-c2cnccn2)ssc1=S`: the melting point stood at 225 °C.

For `O=C(O)C1=Cc2cc(Cl)cc(Cl)c2NC1C(F)(F)F` (stereo not drawn), the melting point was in the range of 223 to 226 °C.

Molecule `CNc1c(NCCSCc2[nH]cnc2C)c(=O)c1=O` had a melting point of 208 °C.

The molecule `CN1C(=O)C(C(=O)Nc2ccc(F)cc2)S(=O)(=O)c2cc(Cl)ccc21` (stereo not drawn) came in with a melting point of 205 °C.

Regarding `NC(=O)N(O)Cc1ccc2c(c1)CCN2CCCc1ccccc1`, the melting point is 94 to 94.5 °C.

`CC1(C)C(=O)C(c2ccccc2)=C1c1ccc(S(N)(=O)=O)cc1` showed a melting point of 142 to 144 °C.

As to `COC(=O)c1sc(-c2ccccc2)c(Br)c1O`, the melting point fell in the range of 85 to 87 °C.

In turn, `COc1cccc(CSc2c(O)cc(-c3ccccc3)oc2=O)c1` registered a melting point of 134 to 136 °C.

Consider `CCOC(=O)c1cc2ccc3cc4ccccc4cc3c2n1C`, for which the melting point is 165 to 166 °C.

The molecule `CCCCOc1c(CNC(=O)OC(C)(C)C)n(CC(C)C)c(=O)c2ccc(-c3nc(C(N)=O)cs3)cc12` yielded a melting point of 195 to 196 °C.

As for `CCCCc1ccc(CN(CCC(C)(C)C)C(=O)Nc2c(C)cc(Cl)cc2C)cc1`, the melting point is 138 to 139 °C.

Molecule `Cc1cccc(C=CC(=O)O)c1[N+](=O)[O-]` yielded a melting point of 230 to 235 °C.

`COC(=O)OC(Cc1ccc(OCCc2nc(-c3ccccc3)oc2C)cc1)C(N)=O` (stereo not drawn) returned a melting point of 171 to 174 °C.

As to `Fc1ccc(C2=NOC(c3cc(Cl)cc(Cl)c3)(C(F)(F)F)C2)cc1Br` (stereo not drawn), the melting point amounted to 132 °C.

The molecule `COC(=O)C(C(=O)O)=C1SC=CS1` had a melting point of 48 to 51 °C.

`CC(=O)c1ccc2nc(N)[nH]c2c1` had a melting point of 228 to 234 °C.

`Cc1sc(-c2ccccc2)nc1COc1ccc(CON=C(CCC(=O)O)c2ccccc2)cc1` registered a melting point of 99 to 100 °C.

Molecule `CC(C)CC(NC(=O)C(Cc1ccccc1)NC(=O)C1CCCCC1CS)C(=O)O` (stereo not drawn) returned a melting point of 156 to 158 °C.

`COc1cc(CCCCCCCC2OC(=O)NC2=O)ccc1OCc1nc(-c2ccccc2)oc1C` (stereo not drawn) had a melting point of 109 to 111 °C.

As to `O=c1oc(-c2ccc(Oc3ccccc3)cc2)cc(O)c1SCCc1ccccc1`, the melting point lay in the range of 127 to 128 °C.

For `COc1ccc2c(c1)C1=C(SCC3(CCN(CC(O)Cc4ccccc4)CC3)O1)C(=O)C2=O` (stereo not drawn), the melting point came out at 106 °C.

`CCCN(CCCNc1c(Cl)cn[nH]c1=O)CCOc1cccc2c1OCCO2` displayed a melting point of 87 to 89 °C.

As to `CCOC(=O)C(CC(=O)c1ccc2cc(OC)ccc2c1)C(=O)c1ccccc1` (stereo not drawn), the melting point lay within 136 to 137 °C.

Take `COc1cc(CSc2ccc(N)nn2)cc(OC)c1OC`: the melting point fell in the range of 143 to 146 °C.

Consider `O=C(NC(Cc1ccc(OCc2ccc(F)cc2)cc1)C(=O)O)c1cc2cc(-c3ccc(Cl)cc3)ccc2s1` (stereo not drawn), for which the melting point was in the range of 189 to 190 °C.

As to `CC(=O)c1ccc(CCN2CCN(c3ccc(Cl)cc3)CC2)cc1`, the melting point was in the range of 141 to 143 °C.

Turning to `COc1ccc(CCC#N)cc1OC`, the melting point was 45 to 48 °C.

`C[Si](C)(C)c1ccc2cc(C(=O)Nc3cnc4sc(CO)nc4c3)n(Cc3nccs3)c2c1` came in with a melting point of 219 to 220 °C.

Molecule `COC(=O)c1cc(-c2ncco2)ccc1-c1ccccc1S(=O)(=O)Nc1onc(C)c1C` registered a melting point of 106 to 112 °C.

With `COC(=O)c1ccc(CBr)c(CBr)c1`, the melting point lay within 74 to 75 °C.

As to `COC(=O)c1cc(C(=O)OC)cc(S(=O)(=O)Nc2ccc(F)cc2C(F)(F)F)c1`, the melting point fell in the range of 142 to 150 °C.

`Cn1ncc(C(=O)N2CCC2)c1C(=O)Nc1ccn2nc(Br)nc2c1` displayed a melting point above 250 °C.

`CC1(C)Oc2ccsc2C(N2CCCC2)C1O` (stereo not drawn): the melting point is 85 to 89 °C.

Regarding `CN1C2CCC1C1CN(C(=O)N3c4ccccc4C(=O)Nc4cccnc43)CC12` (stereo not drawn), the melting point lay in the range of 218 to 220 °C.

Turning to `COC(=O)C(C)=C1CCC2C3CCC4=CC(=O)CCC4(C)C3CCC12C` (stereo not drawn), the melting point lay within 149 to 151 °C.

Regarding `CCC(CC)C(c1ccnn1-c1ccccc1)N(C)S(=O)(=O)c1ccc(Cl)s1` (stereo not drawn), the melting point lay in the range of 126 to 128 °C.

Take `CCOC(=O)c1[nH]ccc1OCC`: the melting point lay in the range of 81 to 83 °C.

Turning to `COc1cccc(-c2c(NC(=O)Nc3c(C(C)C)cccc3C(C)C)c(=O)n(CCOc3ccccc3)c3ncccc23)c1`, the melting point was 168 to 170 °C.

`O=C(Cc1ccc(Oc2ccccc2)cc1)NCCC1=CCCCC1` displayed a melting point of 74 to 75 °C.

For `COc1ccc(CCC(=O)c2ccc(O)cc2O)c(OC)c1C`, the melting point was found to be 171 °C.

The molecule `O=c1c2c(Cl)cc(Cl)cc2n(Cc2ccccc2)c(=O)n1Cc1cccc(I)c1` yielded a melting point of 155 to 157 °C.

As for `NCC1COc2ccc3[nH]c(=O)oc3c2O1` (stereo not drawn), the melting point was above 250 °C.

`CCOC(=O)C1CCC(Sc2ccc(F)cc2)C(=O)C1` (stereo not drawn) came in with a melting point of 96 to 97 °C.

`CCCc1c(OCCCSCCBr)ccc(C(C)=O)c1O` registered a melting point of 74 to 75 °C.

In the case of `Nc1cc(Cl)cc(Cl)c1C(=O)NCc1ccc(Cl)cc1`, the melting point lay in the range of 174 to 178 °C.

As to `CCOC(=O)c1cnc2c(C(F)(F)F)cc(-c3ccc(C(F)(F)F)cc3)cn12`, the melting point amounted to 132 °C.

`COC(=O)C1CC1c1ccc(O)cc1` (stereo not drawn) showed a melting point of 69 to 71 °C.

On to `COCOc1nn(-c2ccccc2)cc1/C=C/c1nc(N2CCOCC2)sc1C`, for which the melting point was 162 to 164 °C.

As for `CC(C)(C)OC(=O)NC(Cc1ccc([N+](=O)[O-])cc1)C(=O)O` (stereo not drawn), the melting point lay within 105 to 107 °C.

`COC1=C(Cc2ccc(Cl)cc2)C(=O)CC(C)(C)C1`: the melting point fell in the range of 62 to 63 °C.

In the case of `COCCOc1ccc([N+](=O)[O-])cc1S(=O)(=O)Cl`, the melting point is 74 to 74.5 °C.
